The values below come from publication PMC7248956, “Discovery of Novel Imidazopyridine GSK-3β Inhibitors Supported by Computational Approaches” (Molecules, 2020).

The structures appear in SMILES notation. Where two headings read alike, the source gives them in different places.

Assay [1] deals with T1, GSK-3β (Homo sapiens, UniProt P49841). Also on record: method as in PMID 26486317, PMID 32435391. The following applies: cited from earlier work.
Assay [2] concerns the target T1, GSK-3β. The experiment in a line: in vitro GSK-3β inhibition assay. Type of assay: biochemical. The following applies: IMID 1 and IMID 2 derivatives 7–18; average of duplicate wells. Here is the method: Driven by the promising results, compounds 7–18 were synthesized as reported in Chemistry Section 2.1. Their biological activity was determined using an in vitro GSK-3β assay described elsewhere. […] In vitro MDCK-MDR1 permeability of IMID 1 and IMID 2 derivatives was also experimentally assessed (Table 1). […] In this respect, a decrease of TPSA was observed moving from INDZ 6 to the corresponding analogues 12 (IMID 1) and 18 (IMID 2), and from 3 to 15. The SAR analysis highlighted the detrimental impact of the positively charged piperidine ring of 2-8-14 triplet and derivative 13 on CNS permeability. […] When the piperidine was replaced with an oxanyl ring, while keeping the isopropoxypyridinyl group on the other side (2 vs. 4 and 8 vs. 10), a low CNS penetration was still observed, indicating a coexisting unfavorable contribution (high TPSA) of the R2 moiety to permeability. The comparison of the 4–10 pyridinyl derivatives with the corresponding 6–12 di-F-phenyl molecules confirmed an ameliorated BBB permeability when lipophilicity raises.

T1 sequence (P49841 whole entry): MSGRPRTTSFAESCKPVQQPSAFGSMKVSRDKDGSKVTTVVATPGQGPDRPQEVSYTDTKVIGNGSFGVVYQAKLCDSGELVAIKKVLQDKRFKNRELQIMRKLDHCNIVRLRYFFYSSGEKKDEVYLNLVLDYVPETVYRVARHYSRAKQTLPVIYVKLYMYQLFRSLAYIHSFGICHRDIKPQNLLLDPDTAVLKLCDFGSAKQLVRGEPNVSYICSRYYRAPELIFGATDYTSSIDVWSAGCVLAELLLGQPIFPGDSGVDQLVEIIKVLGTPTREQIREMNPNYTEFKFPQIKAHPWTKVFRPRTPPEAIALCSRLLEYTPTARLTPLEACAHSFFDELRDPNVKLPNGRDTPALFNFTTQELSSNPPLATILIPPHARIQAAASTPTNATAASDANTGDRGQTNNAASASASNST

As a reminder, the IC50 is the concentration that inhibits the measured activity by half. Turning to `COCCN1CCC(CNC(=O)c2n[nH]c3ccc(-c4cncc(OC(C)C)c4)cc23)CC1` [Compound 2], the IC50 was 9 nM in assay [1] (INDZ derivatives 1–6, published ahead) and 4 nM in assay [1] (INDZ derivatives).

`COCCN1CCC(CNC(=O)c2ncn3ccc(-c4cccnc4)cc23)CC1` [Compound 7, N-((1-(2-Methoxyethyl)piperidin-4-yl)methyl)-7-(pyridin-3-yl)imidazo[1,5-a]pyridine-1-carboxamide]: in assay [2], the IC50 is 410 nM.

With `COCCN1CCC(CNC(=O)c2ncn3ccc(-c4cncc(OC(C)C)c4)cc23)CC1` [Compound 8, 7-(5-Isopropoxypyridin-3-yl)-N-((1-(2-methoxyethyl)piperidin-4-yl)methyl)imidazo[1,5-a]pyridine-1-carboxamide], in assay [2], 120 nM corresponded to half-maximal inhibition (IC50).

Take `O=C(NCC1CCOCC1)c1ncn2ccc(-c3cccnc3)cc12` [Compound 9, 7-(Pyridin-3-yl)-N-((tetrahydro-2H-pyran-4-yl)methyl)imidazo[1,5-a]pyridine-1-carboxamide]: it took 180 nM to reach half-maximal inhibition in assay [2] (IC50).

`CC(C)Oc1cncc(-c2ccn3cnc(C(=O)NCC4CCOCC4)c3c2)c1` [Compound 10, 7-(5-Isopropoxypyridin-3-yl)-N-((tetrahydro-2H-pyran-4-yl)methyl)imidazo[1,5-a]pyridine-1-carboxamide]: in assay [2], the IC50 came out at 200 nM.

`O=C(NCC1CCOCC1)c1ncn2ccc(-c3cnccc3CO)cc12` [Compound 11, 7-(4-(Hydroxymethyl)pyridin-3-yl)-N-((tetrahydro-2H-pyran-4-yl)methyl)imidazo [1,5-a]pyridine-1-carboxamide]: half-maximal inhibition in assay [2] (IC50) required 1400 nM.

Turning to `O=C(NCC1CCOCC1)c1ncn2ccc(-c3cccc(F)c3F)cc12` [Compound 12, 7-(2,3-Difluorophenyl)-N-((tetrahydro-2H-pyran-4-yl)methyl)imidazo[1,5-a]pyridine-1-carboxamide], in assay [2], the midpoint of inhibition, the IC50, lay at 280 nM.

In turn, `COCCN1CCC(CNC(=O)c2ncc3ccc(-c4cccnc4)cn23)CC1` [Compound 13, N-((1-(2-Methoxyethyl)piperidin-4-yl)methyl)-6-(pyridin-3-yl)imidazo[1,5-a]pyridine-3-carboxamide] yielded an IC50 in assay [2] of 370 nM.

`COCCN1CCC(CNC(=O)c2ncc3ccc(-c4cncc(OC(C)C)c4)cn23)CC1` [Compound 14, 6-(5-Isopropoxypyridin-3-yl)-N-((1-(2-methoxyethyl)piperidin-4-yl)methyl)imidazo[1,5-a]pyridine-3-carboxamide] returned an IC50 in assay [2] of 230 nM.

For `O=C(NCC1CCOCC1)c1ncc2ccc(-c3cccnc3)cn12` [Compound 15, 6-(Pyridin-3-yl)-N-((tetrahydro-2H-pyran-4-yl)methyl)imidazo[1,5-a]pyridine-3-carboxamide], in assay [2], the IC50 was 91 nM.

On to `CC(C)Oc1cncc(-c2ccc3cnc(C(=O)NCC4CCOCC4)n3c2)c1` [Compound 16, 6-(5-Isopropoxypyridin-3-yl)-N-((tetrahydro-2H-pyran-4-yl)methyl)imidazo[1,5-a]pyridine-3-carboxamide], for which the 50% inhibitory concentration (IC50) in assay [2] was found to be 72 nM.

`O=C(NCC1CCOCC1)c1ncc2ccc(-c3cnccc3CO)cn12` [Compound 17, 6-(4-(Hydroxymethyl)pyridin-3-yl)-N-((tetrahydro-2H-pyran-4-yl)methyl)imidazo[1,5-a]pyridine-3-carboxamide] yielded an IC50 in assay [2] of 910 nM.

`O=C(NCC1CCOCC1)c1ncc2ccc(-c3cccc(F)c3F)cn12` [Compound 18, 6-(2,3-Difluorophenyl)-N-((tetrahydro-2H-pyran-4-yl)methyl)imidazo[1,5-a]pyridine-3-carboxamide] came in with an IC50 in assay [2] of 240 nM.
